16 compounds from ChEMBL document CHEMBL2069172, “Transition state analogue inhibitors of human methylthioadenosine phosphorylase and bacterial methylthioadenosine/S-adenosylhomocysteine nucleosidase incorporating acyclic ribooxacarbenium ion mimics” (Bioorg Med Chem, 2012) can be followed below.

By pKi is commonly meant −log10 of the Ki, conventionally taken in molar units.

The target of assay [1] is T1, S-methyl-5'-thioadenosine phosphorylase (Homo sapiens, UniProt Q13126).
T1 sequence (Q13126 whole entry): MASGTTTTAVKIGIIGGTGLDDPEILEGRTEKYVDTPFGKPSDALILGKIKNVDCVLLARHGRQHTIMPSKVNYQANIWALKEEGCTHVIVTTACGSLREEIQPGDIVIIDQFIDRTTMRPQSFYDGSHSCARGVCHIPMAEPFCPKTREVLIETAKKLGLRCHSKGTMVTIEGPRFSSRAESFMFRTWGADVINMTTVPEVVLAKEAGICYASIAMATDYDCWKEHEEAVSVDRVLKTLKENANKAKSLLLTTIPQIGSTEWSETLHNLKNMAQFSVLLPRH
Description: Inhibition of human MTAP assessed as reduction in methylthioadenosine phosphorolysis/hydrolysis.

The nature of assay [2]: Inhibition of Neisseria meningitidis MTAN assessed as reduction in methylthioadenosine phosphorolysis/hydrolysi.
Assay [3] in a line: Inhibition of Escherichia coli MTAN assessed as reduction in methylthioadenosine phosphorolysis/hydrolysis.
The next assay has as its system Escherichia coli. Kind of assay: Ratio of Km to Ki for Escherichia coli MTAN assessed as reduction in methylthioadenosine phosphorolysis/hydrolysis.

pKi: −log10 of the molar value.

Take `CSCC(CO)NCc1c[nH]c2c(N)ncnc12` (racemic): the pKi is 7.92 in assay [1] and 9.10 in assay [2].
For `CSC[C@@H](O)[C@H](CO)NCc1c[nH]c2c(N)ncnc12`, the pKi in assay [1] was 7.47.
On the same count and under the same terms, for `CSC[C@H](CO)NCc1c[nH]c2c(N)ncnc12` the value was 7.47; for `CSC[C@H](O)[C@@H](CO)NCc1c[nH]c2c(N)ncnc12`, 7.06.
As for `CSC[C@@H](CNCc1c[nH]c2c(N)ncnc12)[C@@H](O)CO` (racemic), the pKi in assay [3] is 8.05; in assay [1], 7.47; in assay [2], 8.30.
Consider `CSCC(CO)(CO)NCc1c[nH]c2c(N)ncnc12`, for which the pKi in assay [3] was 8.24; in assay [2], 8.40.
With `CSC[C@H]1N[C@@H](c2c[nH]c3c(N)ncnc23)[C@H](O)[C@@H]1O`, the results for the pKi in assay [3] and in assay [2] were 10.10 and 9.44, respectively.
As to `CSC[C@@H](O)[C@@H](CO)NCc1c[nH]c2c(N)ncnc12`, in assay [1], the pKi is 8.28.
On to `CSC[C@@H](CO)NCc1c[nH]c2c(N)ncnc12`, for which the pKi in assay [1] was 8.36. In addition, the Ratio with Escherichia coli was determined as 1200.
Consider `CSC[C@H](CO)N[C@H](CO)c1c[nH]c2c(N)ncnc12`, for which the pKi was 5.76 in assay [3] and 7.33 in assay [2].
As for `CSC[C@H](O)[C@@H](CO)CN(C)Cc1c[nH]c2c(N)ncnc12` (racemic), the pKi in assay [3] was 6.40; in assay [1], 6.98; in assay [2], 6.88.
With `CSC[C@@H](CN(C)Cc1c[nH]c2c(N)ncnc12)[C@@H](O)CO` (racemic), the pKi in assay [3] is 5.64; in assay [1], 7.92; in assay [2] it was 7.21. For the same compound, the Ratio with Escherichia coli worked out at 19.
With `CSC[C@H]1CN(Cc2c[nH]c3c(N)ncnc23)C[C@@H]1O`, in assay [2], the negative logarithm of the Ki (pKi) was 9.85.
Consider `CSC[C@H](O)[C@@H](O)CN(C)Cc1c[nH]c2c(N)ncnc12` (racemic), for which the pKi in assay [3] was 6.69; in assay [1], 6.43; in assay [2], 7.07.
Consider `CSC[C@@H](O)CNCc1c[nH]c2c(N)ncnc12`, for which the pKi is 7.40 in assay [3], 6.22 in assay [1] and 7.44 in assay [2].
On the same counts, the results for `CSCC(CO)CNCc1c[nH]c2c(N)ncnc12` (racemic) are 9.44, 8.00 and 8.92.
